{"source": "paper PMC8868346", "about": "“Novel Series of Dual NRF2 Inducers and Selective MAO-B Inhibitors for the Treatment of Parkinson’s Disease” (Antioxidants, 2022)", "key": {"rat striatal slices [1]": {"test_system": "rat striatal slices", "experiment": "Rat striatal slices exposed to rotenone: ROS production", "format": "cell-based", "settings": "compound 10 µM, rotenone 10 µM, 4 h", "protocol": "(§1) Three- to four-month-old Sprague–Dawley rats were decapitated, the brain was removed, and the two brain hemispheres were separated. Each hemisphere was then cut into 300-µm coronal slices using a McIlwain Tissue Chopper (Cavey Laboratory Engineering, Surrey, UK) and separated in a previously oxygenated (95% O2 and 5% CO2) ice-cold Krebs’s dissection buffer (120 mM of NaCl; 2 mM of KCl; 26 mM of NaHCO3; 1.18 mM of KH2PO4; 10 mM of MgSO4; 0.5 mM of CaCl2; 11 mM of glucose; and 200 mM sucrose at pH 7.4) using a Leica SE6 microscope (Leica, Madrid, Spain). Striatum-containing slices were selected and immediately incubated for stabilization in dissection buffer without sucrose, bubbled with 95% O2 and 5% CO2 for 45 min at 34 °C, allowing slices to recover from slicing injury. […] Finally, cell death and the ROS production were measured.\n(§2) ROS quantification was performed using the fluorescent probe 2,7′-dichlorodihydrofluorescein diacetate (H2DCFDA, λEx/Em = 495/529 nm; Thermo Fisher, Madrid, Spain). Cell death quantification was performed using the fluorescent probe propidium iodide (PI, λEx/Em = 535/617 nm; Thermo Fisher, Madrid, Spain). […] Fluorescence from striatum slices was then recorded for H2DCFDA (λEx/Em = 495/529 nm), PI (λEx/Em = 535/617 nm), and Hoechst (λEx/Em = 350/461 nm), in an inverted Nikon Eclipse T2000-U microscope (Nikon, Tokyo, Japan). […]"}, "rat striatal slices [2]": {"test_system": "rat striatal slices", "experiment": "Rat striatal slices exposed to 6-OHDA: cell death and ROS production", "format": "cell-based", "settings": "compound 10 µM, 6-OHDA 100 µM, 4 h", "protocol": "as §1, §2"}}}
{"smiles": "C#CCN(CC#C)CCc1c[nH]c2ccc(OC(=O)C=Cc3ccccc3)cc12", "note": "[Compound 14, 3-(2-(Di(prop-2-yn-1-yl)amino)ethyl)-1H-indol-5-yl Cinnamate]", "values": [{"measurement": "ROS levels (H2DCFDA), rotenone model", "setting": "rat striatal slices [1]", "result": "reduced"}, {"measurement": "ROS production (H2DCFDA), 6-OHDA model", "setting": "rat striatal slices [2]", "result": "significantly decreased ROS production"}, {"measurement": "cell death (propidium iodide), 6-OHDA model", "setting": "rat striatal slices [2]", "result": "significant reduction in cell death"}]}
